What was measured:
CCRF-CEM cells [1] = assay: Alkaline comet assay (DNA damage); type: cell-based, human; conditions: 1-, 2- or 4-fold IC50, 24 h
Method: The OxiSelect™ Comet Assay Kit (Cell Biolabs/Biocat, Heidelberg, Germany) was used to detect DNA damage according to the manufacturer’s instructions. CCRF-CEM cells treated with 1-, 2- and 4-fold IC50 of Aloe-emodin for 24 h. Then, the cells were mixed with agarose and applied to OxiSelect™ Comet Assay slides. These slides including the embedded cells were treated with lysis buffer and alkaline solution. Subsequently, electrophoresis was performed on the slide with a voltage of 22 V for 30 min corresponding to 1 V/cm of the electrophoresis chamber. These slides were washed with distilled water. After fixation with 70% ethanol, the slides were stained with by a fluorescent DNA binding dye.
Then, the slides were photographed by a fluorescence microscope (EVOSs FL Cell Image System, Thermo Fisher Scientific Waltham, USA) using a FITC filter with an excitation wavelength of 490 nm and emission at 520 nm. At least 50 cells per image were randomly selected and analyzed with the OpenComet software (http://www.cometbio.org). Percentages of tail DNA, tail moment and olive moment were assessed as parameters for DNA damage. The statistical significance was determined by one-way ANOVA with Tukey’s multiple comparison test.

[2] = test system: HCT116 (p53+/+) colon cancer cells; assay: Resazurin reduction assay, HCT116 (p53+/+); type: cell-based; conditions: Homo sapiens, HCT-116, 72 h
From the text: (§1) The cell lines used in the present work, their origins and maintenance conditions were previously reported. In brief, drug-sensitive CCRF-CEM and multidrug resistant P-glycoprotein-over-expressing CEM/ADR5000 leukemia cells, MDA-MB-231-pcDNA3 breast cancer cells and their transfectant subline MDA-MB-231-BCRP clone 23, HCT116 (p53^+/+) colon cancer cells and its knockout clone HCT116 (p53^-/-), U87.MG glioblastoma multiform cells and their transfectant subline U87.MGΔEGFR as well as HEK293 human embryonic kidney cells transfected with or without a cDNA for ABCB5 were used. The human peripheral mononuclear cells (PMNC) were isolated from fresh blood samples of a healthy donor by using Histopaque® (Sigma-Aldrich, Taufkirchen, Germany).
(§2) Resazurin reduction assay was conducted to test the cytotoxicity of the compounds. This assay is based on the reduction of resazurin to resorufin by viable cells. […] Briefly, aliquots of 0.5×10^4 adherent cells which were allowed to attach overnight and 1×10^4 suspension cells per well were seeded in 96-well-plates with or without the addition of varying concentrations of the test substance to get a total volume of 200 μL/well. After 72 h incubation and addition of resazurin (Sigma-Aldrich) for 4 h, staining was measured by an Infinite M2000 ProTM plate reader (Tecan, Germany) using an excitation wavelength of 544 nm and an emission wavelength of 590 nm. […]

[3] = test system: Human peripheral mononuclear cells (PMNC); assay: Toxicity in normal cells, resazurin assay; type: cell-based; conditions: PMNC of a healthy donor, all concentrations tested 0.001-100 μM
Method: We also investigated Aloe-emodin’s toxicity towards normal cells. Human peripheral mononuclear cells (PMNC) were isolated from fresh blood samples of a healthy donor and tested against various concentrations of Aloe-emodin ranging from 0.001-100 μM.
Normal human peripheral mononuclear cells (PMNC) were isolated from fresh blood samples of a healthy donor using Histopaque® (Sigma-Aldrich). In brief, 6 mL blood were layered with 6 mL Histopaque® and centrifuged (400 × g) for 30 min at 4°C. The opaque interface containing lymphocytes and other mononuclear cells was transferred into a new tube and washed several times. Isolated PMNCs were kept in Panserin 413 medium (PAN-Biotech, Aidenbach, Germany) supplemented with 2 % phytohemagglutinin M (PHA-M, Life Technologies, Darmstadt, Germany).
Resazurin reduction assay was conducted to test the cytotoxicity of the compounds. This assay is based on the reduction of resazurin to resorufin by viable cells. […] After 72 h incubation and addition of resazurin (Sigma-Aldrich) for 4 h, staining was measured by an Infinite M2000 ProTM plate reader (Tecan, Germany) using an excitation wavelength of 544 nm and an emission wavelength of 590 nm. […]

[4] = test system: MDA-MB-231-pcDNA breast cancer cells; assay: Resazurin reduction assay, MDA-MB-231-pcDNA; type: cell-based; conditions: Homo sapiens, 72 h
From the text: as §1, §2

CCRF-CEM cells [5] = assay: Mitochondrial membrane potential (JC-1, flow cytometry); type: cell-based, human; conditions: CCRF-CEM, 2- and 4-fold IC50, 24 and 48 h
From the text: The JC-1 Mitochondrial Membrane Potential Assay Kit (Cayman Chemical, Ann Arbor, MI, USA) was applied for the detection of MMP by flow cytometry according to the manufacturer’s instructions. The cationic dye, 5, 5’, 6, 6’- tetrachloro- 1, 1’, 3, 3’- tetraethylbenzimidazolylcarbocyanine iodide (JC-1) enters the mitochondria and changes its fluorescent properties based on the aggregation of the probe. In healthy cells having high MMP, JC-1 forms complexes known as J-aggregates with intense red fluorescence. On the other hand, in cells with low MMP, JC-1 remains in its monomeric form showing green fluorescence. […] A LSR-Fortessa FACS analyzer (Becton–Dickinson) was used to detect the J-aggregate form of JC-1 with an excitation wavelength of 535 ± 20 nm and an emission wavelength of 590 ± 20 nm as well as the monomeric form of JC-1 at excitation and emission wavelengths of 485 and 535 nm, respectively. The results were analyzed by the FlowJo software (Celeza, Olten, Switzerland). 2×10^4 cells were counted for each experiment which were repeated in triplicate.

O=C1c2cccc(O)c2C(=O)c2c(O)cc(CO)cc21 [Aloe-emodin]
DNA damage (comet tails, tail DNA %, tail and olive tail moment) (CCRF-CEM cells [1]): induced DNA damage in a dose-dependent manner | IC50 [2]: 16.5 µM | cytotoxic activity towards normal cells [3]: did not show cytotoxic activity | IC50 [4]: 22.3 µM | MMP depolarization (JC-1 fluorescence) (CCRF-CEM cells [5]): shift from red to green fluorescence

Source: PMC5915154, “Aloe-emodin as drug candidate for cancer therapy” (Oncotarget, 2018)
